The target in one test is T1, Aurora-2 (Homo sapiens, UniProt O14965).
T1 sequence (O14965 1-403): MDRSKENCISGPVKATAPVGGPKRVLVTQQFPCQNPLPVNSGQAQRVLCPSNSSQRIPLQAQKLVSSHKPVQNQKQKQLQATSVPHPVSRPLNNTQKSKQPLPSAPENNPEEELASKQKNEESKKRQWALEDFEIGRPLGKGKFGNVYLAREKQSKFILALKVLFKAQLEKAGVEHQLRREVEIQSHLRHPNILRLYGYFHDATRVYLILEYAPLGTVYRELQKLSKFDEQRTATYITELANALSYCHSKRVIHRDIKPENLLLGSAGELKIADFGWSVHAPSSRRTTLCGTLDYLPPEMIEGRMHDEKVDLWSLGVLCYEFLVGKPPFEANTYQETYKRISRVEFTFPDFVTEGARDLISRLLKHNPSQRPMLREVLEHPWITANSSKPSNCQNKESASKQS
The test is described as follows: Inhibition assay of Aurora-2 activity (SPA). The note with it: 10 μM ATP, 60 minutes at room temperature. The class given is biochemical. The protocol: The inhibiting activity and the potency of selected compounds is determined through a method of assay based on the use of the SPA technology (Amersham Pharmacia Biotech).
The assay consists of the transfer of radioactivity labelled phosphate moiety by the kinase to a biotinylated substrate. The resulting 33P-labelled biotinylated product is allowed to bind to streptavidin-coated SPA beads (biotin capacity 130 pmol/mg), and light emitted was measured in a scintillation counter.
Inhibition Assay of Aurora-2 Activity
Kinase reaction: 8 μM biotinylated peptide (4 repeats of LRRWSLG) (SEQ ID NO:2), 10 μM ATP (0.5 uCiP^33 γ-ATP), 7.5 ng Aurora 2, inhibitor in a final volume of 30 μl buffer (HEPES 50 mM pH 7.0, MgCl2 10 mM, 1 mM DTT, 0.2 mg/mL BSA, 3 μM orthovanadate) were added to each well of a 96 U bottom well plate. After 60 minutes at room temperature incubation, reaction was stopped and biotinylated peptide captured by adding 100 μl of bead suspension.
Stratification: 100 μl of CsCl 5 M were added to each well and let stand 4 hour before radioactivity was counted in the Top-Count instrument.
IC50 determination: inhibitors were tested at different concentrations ranging from 0.0015 to 10 μM. […]

Test [1] deals with human colon cancer cell line HCT-116. Briefly: In vitro cell proliferation assay. Format: cell-based. To be noted: HCT-116, 72 hours of treatment, cell count, read-out: Cell Antiproliferation IC50. The protocol:
The compounds of the invention were further tested, in vitro to assess the anti-proliferative effect onto cell cultures.
In Vitro Cell Proliferation Assay
The human colon cancer cell line HCT-116 was seeded at 5000 cells/cm^2 in 24 wells plate (Costar) using F12 medium (Gibco) supplemented with 10% FCS (EuroClone, Italy) 2 mM L-glutamine and 1% penicillin/streptomycin and maintained at 37° C., 5% CO2 and 96% relative humidity. The following day, plates were treated in duplicates with 5 ul of an appropriate dilution of compounds starting from a 10 mM stock in DMSO. Two untreated control wells were included in each plate. After 72 hours of treatment, medium was withdrawn and cells detached from each well using 0.5 mL of 0.05% (w/v) Trypsin, 0.02% (w/v) EDTA (Gibco). Samples were diluted with 9.5 mL of Isoton (Coulter) and counted using a Multisizer 3 cell counter (Beckman Coulter). Data were evaluated as percent of the control wells: % of CTR=(Treated−Blank)/(Control−Blank).
IC50 values were calculated by LSW/Data Analysis using Microsoft Excel sigmoidal curve fitting.

Regarding `CC(C)(NC(=O)c1cc2c(NC(=O)c3ccccc3NC(=O)c3ccc[nH]3)n[nH]c2s1)c1ccccc1` [Compound (1), 3-{2-[(1H-pyrrole-2-carbonyl)-amino]-benzoylamino}-1H-thieno[2,3-c]pyrazole-5-carboxylic acid (1-methyl-1-phenyl-ethyl)-amide], the IC50 is 6 nM at Aurora-2 and 7 nM in test [1].

As for `CC(C)(NC(=O)c1cc2c(NC(=O)c3ccccc3NC(=O)c3ccc[nH]3)n[nH]c2s1)c1ccccc1F` [Compound (2), 3-{2-[(1H-pyrrole-2-carbonyl)-amino]-benzoylamino}-1H-thieno[2,3-c]pyrazole-5-carboxylic acid [1-(2-fluoro-phenyl)-1-methyl-ethyl]-amide], the results for the IC50 (against Aurora-2; in test [1]) were 12 nM and 54 nM, respectively.
